Laboratory results reported in the NIST ThermoML archive (doi:10.1021/je3005479).
Numbers after ± are expanded uncertainties.

Assays:
[1] = Liquid; for speed of sound / kinematic viscosity: 83.07 kPa; for speed of sound: Pulse-echo method; for mass density: 87.07 kPa, Vibrating tube method; for kinematic viscosity: Capillary tube (Ostwald / Ubbelohde) method
[2] = refractive index (Na D-line) (dimensionless); settings: 83.07 kPa, Liquid, Standard Abbe refractometry

CC(C)C1CC(C(C)C)CC(C(C)C)C1 (stereo not drawn) [1,3,5-triisopropylcyclohexane]
speed of sound ([1]; 278.15 K): 1405.7 ± 2.3 m/s
mass density ([1]; 278.15 K): 837.78 ± 0.39 kg/m3
speed of sound ([1]; 283.15 K): 1385 ± 2.3 m/s
mass density ([1]; 283.15 K): 834.14 ± 0.39 kg/m3
speed of sound ([1]; 288.15 K): 1364.8 ± 2.2 m/s
mass density ([1]; 288.15 K): 830.52 ± 0.39 kg/m3
kinematic viscosity ([1]; 293.15 K): 7.66e-06 ± 1.3e-07 m2/s
speed of sound ([1]; 293.15 K): 1344.8 ± 2.2 m/s
mass density ([1]; 293.15 K): 826.89 ± 0.39 kg/m3
kinematic viscosity ([1]; 298.15 K): 6.27e-06 ± 1.1e-07 m2/s
speed of sound ([1]; 298.15 K): 1325 ± 2.2 m/s
mass density ([1]; 298.15 K): 823.27 ± 0.39 kg/m3
kinematic viscosity ([1]; 303.15 K): 5.22e-06 ± 8.4e-08 m2/s
speed of sound ([1]; 303.15 K): 1305.5 ± 2.2 m/s
mass density ([1]; 303.15 K): 819.64 ± 0.39 kg/m3
kinematic viscosity ([1]; 308.15 K): 4.43e-06 ± 6.8e-08 m2/s
speed of sound ([1]; 308.15 K): 1286.3 ± 2.2 m/s
mass density ([1]; 308.15 K): 816.02 ± 0.39 kg/m3
kinematic viscosity ([1]; 313.15 K): 3.81e-06 ± 5.6e-08 m2/s
speed of sound ([1]; 313.15 K): 1267.3 ± 2.2 m/s
mass density ([1]; 313.15 K): 812.39 ± 0.39 kg/m3
kinematic viscosity ([1]; 318.15 K): 3.32e-06 ± 4.9e-08 m2/s
speed of sound ([1]; 318.15 K): 1248.6 ± 2.1 m/s
mass density ([1]; 318.15 K): 808.76 ± 0.39 kg/m3
kinematic viscosity ([1]; 323.15 K): 2.9e-06 ± 3.7e-08 m2/s
speed of sound ([1]; 323.15 K): 1230 ± 2.1 m/s
mass density ([1]; 323.15 K): 805.12 ± 0.39 kg/m3
kinematic viscosity ([1]; 328.15 K): 2.58e-06 ± 3.1e-08 m2/s
speed of sound ([1]; 328.15 K): 1211.7 ± 2.1 m/s
mass density ([1]; 328.15 K): 801.49 ± 0.39 kg/m3
kinematic viscosity ([1]; 333.15 K): 2.32e-06 ± 2.7e-08 m2/s
speed of sound ([1]; 333.15 K): 1193.6 ± 2.1 m/s
mass density ([1]; 333.15 K): 797.85 ± 0.39 kg/m3
kinematic viscosity ([1]; 338.15 K): 2.09e-06 ± 2.3e-08 m2/s
speed of sound ([1]; 338.15 K): 1175.6 ± 2.1 m/s
mass density ([1]; 338.15 K): 794.21 ± 0.39 kg/m3
kinematic viscosity ([1]; 343.15 K): 1.9e-06 ± 2.1e-08 m2/s
speed of sound ([1]; 343.15 K): 1158 ± 2.1 m/s
mass density ([1]; 343.15 K): 790.57 ± 0.39 kg/m3
kinematic viscosity ([1]; 348.15 K): 1.74e-06 ± 1.9e-08 m2/s
kinematic viscosity ([1]; 353.15 K): 1.6e-06 ± 1.7e-08 m2/s
kinematic viscosity ([1]; 358.15 K): 1.48e-06 ± 1.5e-08 m2/s
kinematic viscosity ([1]; 363.15 K): 1.37e-06 ± 1.4e-08 m2/s
kinematic viscosity ([1]; 368.15 K): 1.28e-06 ± 1.3e-08 m2/s
kinematic viscosity ([1]; 373.15 K): 1.19e-06 ± 1.4e-08 m2/s
refractive index ([2]; 293.15 K): 1.4571 ± 0.0009
refractive index ([2]; 298.15 K): 1.4547 ± 0.0007
refractive index ([2]; 303.15 K): 1.4525 ± 0.0011
